We go through 23 molecules from patent publication US12371428B2 (Exelixis, Inc., priority 2019, dated 2025).

Assay [1] has as its target Human MET (residues 956-1390) (Homo sapiens (Human), UniProt P08581). The experiment in a line: Human Met kinase assay, HTRF KinEase (Example D-2). It counts as biochemical. The settings on record: protocol of Example D-2 (other compounds); read-out: c-Met IC50. The gist of the method: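 IC50 values come from a 4-parameter logistic fit of the […] fluorescence ratio, set between DMSO (100%) and reference compound at 1 μM (0%). Reactions held MET 956-1390 at 0.1 ng/well, ATP at Km, biotinylated peptide, 5 mM MgCl2, 1 mM MnCl2, 1 mM DTT and 3% DMSO, and ran 40 min at room temperature before streptavidin-XL665/Eu-antibody detection.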
On the technique in general: TR-FRET usually uses a lanthanide donor and a delayed reading to cut background.

Assay [2] addresses Mer (phospho-Mer, MERTK-transfected 293A cells) (Homo sapiens (Human), UniProt Q12866). The experiment in a line: Mer autophosphorylation ELISA in transient transfected 293A cells (Example H). The note with it: cellular activity; Mer autophosphorylation ELISA in transient transfected 293A cells. Format: cell-based. In short, it runs like this: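 IC50 from 4-parameter logistic fit of phospho-Mer levels, quantified by ELISA against a phospho-Mer standard in lysates of MERTK-transfected 293A cells. Cells exposed 1 h to 8-point serial dilutions, serum-free, 0.3% DMSO; controls: DMSO (100%) and reference inhibitor (0%).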
For orientation: In an ELISA, binding on a coated surface is turned into a signal by an enzyme label.

Structures can show the parent of a compound that is named as a salt. Bounds are passed on as bounds.

Chain of Mer (phospho-Mer, MERTK-transfected 293A cells) (Q12866 21-999): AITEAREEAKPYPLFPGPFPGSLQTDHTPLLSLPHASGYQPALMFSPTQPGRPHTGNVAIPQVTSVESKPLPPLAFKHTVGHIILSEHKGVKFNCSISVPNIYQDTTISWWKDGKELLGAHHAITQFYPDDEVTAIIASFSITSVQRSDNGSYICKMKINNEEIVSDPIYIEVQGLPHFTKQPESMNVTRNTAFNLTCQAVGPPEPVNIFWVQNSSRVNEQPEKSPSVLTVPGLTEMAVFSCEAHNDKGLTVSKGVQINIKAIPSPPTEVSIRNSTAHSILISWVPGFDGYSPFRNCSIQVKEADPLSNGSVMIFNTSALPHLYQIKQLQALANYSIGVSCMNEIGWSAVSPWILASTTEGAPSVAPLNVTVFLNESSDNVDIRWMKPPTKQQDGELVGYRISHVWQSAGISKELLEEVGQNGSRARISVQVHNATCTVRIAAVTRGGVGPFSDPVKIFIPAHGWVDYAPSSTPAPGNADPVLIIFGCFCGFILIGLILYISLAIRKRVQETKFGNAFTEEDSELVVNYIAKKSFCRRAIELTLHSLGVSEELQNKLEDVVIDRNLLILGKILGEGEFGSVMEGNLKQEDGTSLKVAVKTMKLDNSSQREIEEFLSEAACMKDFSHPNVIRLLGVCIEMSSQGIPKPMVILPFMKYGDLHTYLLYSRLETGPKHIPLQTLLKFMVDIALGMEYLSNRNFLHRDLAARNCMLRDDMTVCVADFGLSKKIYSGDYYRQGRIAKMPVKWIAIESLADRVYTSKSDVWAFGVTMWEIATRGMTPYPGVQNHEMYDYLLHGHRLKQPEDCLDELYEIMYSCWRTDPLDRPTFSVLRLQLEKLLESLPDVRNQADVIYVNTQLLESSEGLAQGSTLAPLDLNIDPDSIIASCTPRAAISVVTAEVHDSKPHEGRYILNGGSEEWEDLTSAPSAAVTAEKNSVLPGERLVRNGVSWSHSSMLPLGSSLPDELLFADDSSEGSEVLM
Chain of Human MET (residues 956-1390) (P08581 956-1390): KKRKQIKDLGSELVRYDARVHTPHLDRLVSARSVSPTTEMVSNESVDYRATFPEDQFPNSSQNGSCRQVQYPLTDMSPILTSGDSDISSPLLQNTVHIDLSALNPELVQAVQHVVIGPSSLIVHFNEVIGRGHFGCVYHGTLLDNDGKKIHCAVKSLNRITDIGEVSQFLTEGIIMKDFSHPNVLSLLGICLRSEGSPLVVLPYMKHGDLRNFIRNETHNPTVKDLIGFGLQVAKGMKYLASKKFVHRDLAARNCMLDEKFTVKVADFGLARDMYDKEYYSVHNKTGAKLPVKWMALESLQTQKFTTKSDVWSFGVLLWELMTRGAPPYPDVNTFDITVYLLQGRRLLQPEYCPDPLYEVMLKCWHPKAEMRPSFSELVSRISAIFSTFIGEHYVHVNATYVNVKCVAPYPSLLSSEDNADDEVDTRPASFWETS

On to `COc1cnc2c(Oc3ccc(NC(=O)c4cn(C)c(CO)c(-c5ccc(F)cc5)c4=O)cc3F)ccnc2c1` [Compound 222, N-[3-Fluoro-4-[(7-methoxy-1,5-naphthyridin-4-yl)oxy]phenyl]-5-(4-fluorophenyl)-6-(hydroxymethyl)-1-methyl-4-oxopyridine-3-carboxamide], for which the IC50 in assay [1] and in assay [2] was less than 100 nM in each case.
In the case of `COc1cnc2c(Oc3ccc(NC(=O)c4c(C)nc(C)n(-c5ccc(F)cc5)c4=O)cc3)ccnc2c1` [Compound 258, 1-(4-Fluorophenyl)-N-[4-[(7-methoxy-1,5-naphthyridin-4-yl)oxy]phenyl]-2,4-dimethyl-6-oxopyrimidine-5-carboxamide], the IC50 in assay [1] and in assay [2] was less than 100 nM each time.
`COc1cnc2c(Oc3ccc(NC(=O)c4c(C)nc(C)c(-c5ccc(F)cc5C)c4O)cc3F)ccnc2c1` [Compound 178, N-[3-Fluoro-4-[(7-methoxy-1,5-naphthyridin-4-yl)oxy]phenyl]-5-(4-fluoro-2-methylphenyl)-4-hydroxy-2,6-dimethylpyridine-3-carboxamide]: the IC50 in assay [1] and in assay [2] was less than 100 nM throughout.
For the molecule `CCc1nc(C)c(-c2ccc(F)cc2C)c(O)c1C(=O)Nc1ccc(Oc2ccnc3cc(OC)cnc23)c(F)c1` [Compound 204, 2-Ethyl-N-[3-fluoro-4-[(7-methoxy-1,5-naphthyridin-4-yl)oxy]phenyl]-5-(4-fluoro-2-methylphenyl)-4-hydroxy-6-methylpyridine-3-carboxamide], the concentration for half-maximal inhibition (IC50) (as a rule, the concentration at which inhibition is half-maximal) was 100 to 300 nM in assay [1] and less than 100 nM in assay [2].
`COCCOc1nc2c(Oc3ccc(NC(=O)c4n[nH]c(C)c(-c5ccc(F)cc5C)c4=O)cc3F)ccnc2cc1OC` [Compound 252, N-[3-Fluoro-4-[[7-methoxy-6-(2-methoxyethoxy)-1,5-naphthyridin-4-yl]oxy]phenyl]-5-(4-fluoro-2-methylphenyl)-6-methyl-4-oxo-1H-pyridazine-3-carboxamide]: the 50% inhibitory concentration (IC50) in assay [1] and in assay [2] was less than 100 nM throughout.
As for `COCCOc1nc2c(Oc3ccc(NC(=O)c4cn(C)c(CO)c(-c5ccc(F)cc5)c4=O)cc3F)ccnc2cc1OC` [Compound 228, N-[3-Fluoro-4-[[7-methoxy-6-(2-methoxyethoxy)-1,5-naphthyridin-4-yl]oxy]phenyl]-5-(4-fluorophenyl)-6-(hydroxymethyl)-1-methyl-4-oxopyridine-3-carboxamide], the concentration for half-maximal inhibition (IC50) in assay [1] and in assay [2] was less than 100 nM throughout.
With `COCc1nc(C)c(-c2ccc(F)cc2C)c(O)c1C(=O)Nc1ccc(Oc2ccnc3cc(OC)cnc23)cc1` [Compound 194, 5-(4-Fluoro-2-methylphenyl)-4-hydroxy-2-(methoxymethyl)-N-[4-[(7-methoxy-1,5-naphthyridin-4-yl)oxy]phenyl]-6-methylpyridine-3-carboxamide], the IC50 in assay [1] and in assay [2] was less than 100 nM throughout.
As to `CCc1nc(C)c(-c2ccc(F)cc2C)c(O)c1C(=O)Nc1ccc(Oc2ccnc3cc(OC)cnc23)cc1` [Compound 205, 2-Ethyl-5-(4-fluoro-2-methylphenyl)-4-hydroxy-N-[4-[(7-methoxy-1,5-naphthyridin-4-yl)oxy]phenyl]-6-methylpyridine-3-carboxamide], the half-maximal inhibitory concentration (IC50) in assay [1] and in assay [2] was less than 100 nM in each case.
In the case of `COc1cnc2c(Oc3ccc(NC(=O)c4cn(C)c(CO)c(-c5ccc(F)cc5)c4=O)cc3)ccnc2c1` [Compound 223, 5-(4-Fluorophenyl)-6-(hydroxymethyl)-N-[4-[(7-methoxy-1,5-naphthyridin-4-yl)oxy]phenyl]-1-methyl-4-oxopyridine-3-carboxamide], the IC50 in assay [1] and in assay [2] was less than 100 nM each time.
On to `COc1cc2nccc(Oc3ccc(NC(=O)c4c(C)nc(C)c(-c5ccc(F)cc5C)c4O)cc3F)c2nc1OC` [Compound 177, N-[4-[(6,7-Dimethoxy-1,5-naphthyridin-4-yl)oxy]-3-fluorophenyl]-5-(4-fluoro-2-methylphenyl)-4-hydroxy-2,6-dimethylpyridine-3-carboxamide], for which the IC50 in assay [1] and in assay [2] was less than 100 nM throughout.
Turning to `COc1cnc2c(Oc3ccc(NC(=O)c4c(C)ncn(-c5ccc(F)cc5)c4=O)cc3F)ccnc2c1` [Compound 256, N-[3-Fluoro-4-[(7-methoxy-1,5-naphthyridin-4-yl)oxy]phenyl]-1-(4-fluorophenyl)-4-methyl-6-oxopyrimidine-5-carboxamide], the IC50 in assay [1] and in assay [2] was less than 100 nM in each case.
On to `COc1cnc2c(Oc3ccc(NC(=O)c4nn(C)c(C)c(-c5ccc(F)cc5)c4=O)cc3)ccnc2c1` [Compound 251, 5-(4-Fluorophenyl)-N-[4-[(7-methoxy-1,5-naphthyridin-4-yl)oxy]phenyl]-1,6-dimethyl-4-oxopyridazine-3-carboxamide], for which the half-inhibitory concentration (IC50) in assay [1] and in assay [2] was less than 100 nM in each case.
For the molecule `COCc1nc(C)c(-c2ccc(F)cc2)c(O)c1C(=O)Nc1ccc(Oc2ccnc3ccc(OC)nc23)c(F)c1` [Compound 189, N-[3-Fluoro-4-[(6-methoxy-1,5-naphthyridin-4-yl)oxy]phenyl]-5-(4-fluorophenyl)-4-hydroxy-2-(methoxymethyl)-6-methylpyridine-3-carboxamide], the IC50 in assay [1] and in assay [2] was less than 100 nM in each case.
On to `COc1cc2nccc(Oc3ccc(NC(=O)c4cn(C)c(C)c(-c5ccc(F)cc5C)c4=O)cc3)c2nc1OC` [Compound 196, N-[4-[(6,7-Dimethoxy-1,5-naphthyridin-4-yl)oxy]phenyl]-5-(4-fluoro-2-methylphenyl)-1,6-dimethyl-4-oxopyridine-3-carboxamide], for which the IC50 in assay [1] and in assay [2] was less than 100 nM throughout.
As for `COc1cc2nccc(Oc3ccc(NC(=O)c4cn(C(C)C)c(C)c(-c5cccc(F)c5)c4=O)cc3F)c2nc1OC` [Compound 30, N-[4-[(6,7-Dimethoxy-1,5-naphthyridin-4-yl)oxy]-3-fluorophenyl]-5-(3-fluorophenyl)-6-methyl-4-oxo-1-propan-2-ylpyridine-3-carboxamide hydrochloride], the concentration for half-maximal inhibition (IC50) in assay [1] and in assay [2] was less than 100 nM each time.
In the case of `COc1ccc2nccc(Oc3ccc(NC(=O)c4c(C)nc(C)n(-c5ccc(F)cc5)c4=O)cc3F)c2n1` [Compound 233, N-[3-Fluoro-4-[(6-methoxy-1,5-naphthyridin-4-yl)oxy]phenyl]-1-(4-fluorophenyl)-2,4-dimethyl-6-oxopyrimidine-5-carboxamide], the IC50 in assay [1] is 100 to 300 nM; in assay [2], less than 100 nM.
Regarding `COc1cc2nccc(Oc3ccc(NC(=O)c4c(C)ncc(-c5ccc(F)cc5)c4O)cc3F)c2nc1OC` [Compound 237, N-[4-[(6,7-Dimethoxy-1,5-naphthyridin-4-yl)oxy]-3-fluorophenyl]-5-(4-fluorophenyl)-4-hydroxy-2-methylpyridine-3-carboxamide], the IC50 in assay [1] and in assay [2] was less than 100 nM throughout.
Consider `CCn1cc(-c2ccc(F)cc2)c(=O)c(C(=O)Nc2ccc(Oc3ccnc4cc(OC)cnc34)c(F)c2)c1C` [Compound 240, 1-Ethyl-N-[3-fluoro-4-[(7-methoxy-1,5-naphthyridin-4-yl)oxy]phenyl]-5-(4-fluorophenyl)-2-methyl-4-oxopyridine-3-carboxamide], for which the IC50 in assay [1] and in assay [2] was less than 100 nM in each case.
Consider `COc1cnc2c(Oc3ccc(NC(=O)c4cn(CC(F)(F)F)c(C)c(-c5ccc(F)cc5)c4=O)cc3F)ccnc2c1` [Compound 261, N-[3-Fluoro-4-[(7-methoxy-1,5-naphthyridin-4-yl)oxy]phenyl]-5-(4-fluorophenyl)-6-methyl-4-oxo-1-(2,2,2-trifluoroethyl)pyridine-3-carboxamide], for which the half-maximal inhibitory concentration (IC50) in assay [1] and in assay [2] was less than 100 nM each time.
Take `CCc1nc(C)c(-c2ccc(F)cc2)c(O)c1C(=O)Nc1ccc(Oc2ccnc3cc(OC)c(OC)nc23)c(F)c1` [Compound 179, N-[4-[(6,7-Dimethoxy-1,5-naphthyridin-4-yl)oxy]-3-fluorophenyl]-2-ethyl-5-(4-fluorophenyl)-4-hydroxy-6-methylpyridine-3-carboxamide]: the IC50 in assay [1] and in assay [2] was less than 100 nM in each case.
`COc1ccc2nccc(Oc3ccc(NC(=O)c4n[nH]c(C)c(-c5ccc(F)cc5C)c4=O)cc3F)c2n1` [Compound 230, N-[3-Fluoro-4-[(6-methoxy-1,5-naphthyridin-4-yl)oxy]phenyl]-5-(4-fluoro-2-methylphenyl)-6-methyl-4-oxo-1H-pyridazine-3-carboxamide]: the half-maximal inhibitory concentration (IC50) in assay [1] and in assay [2] was less than 100 nM throughout.
`COc1cnc2c(Oc3ccc(NC(=O)c4c(C)ncc(-c5ccc(F)cc5)c4O)cc3)ccnc2c1` [Compound 236, 5-(4-Fluorophenyl)-4-hydroxy-N-[4-[(7-methoxy-1,5-naphthyridin-4-yl)oxy]phenyl]-2-methylpyridine-3-carboxamide]: the IC50 in assay [1] and in assay [2] was less than 100 nM throughout.
Consider `COCCOc1nc2c(Oc3ccc(NC(=O)c4cn(C)c(C)c(-c5ccc(F)cc5C)c4=O)cc3F)ccnc2cc1OC` [Compound 200, N-[3-Fluoro-4-[[7-methoxy-6-(2-methoxyethoxy)-1,5-naphthyridin-4-yl]oxy]phenyl]-5-(4-fluoro-2-methylphenyl)-1,6-dimethyl-4-oxopyridine-3-carboxamide], for which the IC50 in assay [1] and in assay [2] was less than 100 nM in each case.
